Two compounds from patent publication US11813270B2, “Nitric oxide-releasing antibacterial compounds, formulations, and methods pertaining thereto” (KNOW BIO, LLC, priority 2020, dated 2023) can be followed below.

In one data set the test system is Pseudomonas aeruginosa. Put plainly: MIC/MBC assay (CLSI method). It is filed as cell-based. As to conditions: combined composition of β-cyclodextrin and MTDD.
For the next data set, the system named is Mycobacterium abscessus. As to the kind of experiment: MIC/MBC assay (CLSI method). It is filed as cell-based. As to conditions: unit not given.

A value given as a limit tells only on which side of the number the result lay.

For the compound `OC[C@H]1O[C@@H]2O[C@H]3[C@H](O)[C@@H](O)[C@@H](O[C@H]4[C@H](O)[C@@H](O)[C@@H](O[C@H]5[C@H](O)[C@@H](O)[C@@H](O[C@H]6[C@H](O)[C@@H](O)[C@@H](O[C@H]7[C@H](O)[C@@H](O)[C@@H](O[C@H]8[C@H](O)[C@@H](O)[C@@H](O[C@H]1[C@H](O)[C@H]2O)O[C@@H]8CO)O[C@@H]7CO)O[C@@H]6CO)O[C@@H]5CO)O[C@@H]4CO)O[C@@H]3CO` [0% MTDD, β-cyclodextrin], where the note is “combined composition of β-cyclodextrin and MTDD”, the NO-loading came to 0.0 µmol/mg. In addition, in the data set with Pseudomonas aeruginosa, the “MIC against P. aeruginosa” value was >6250 µg/mL.

As to `C[C@@H]1CCC[C@H](C)N1[N+]([O-])=N[O-].[Na+]` [cis-DMP/NO], the “NO Load” value (unit not given) was determined as 6.9. For the same compound, the MBC against Mycobacterium abscessus (M. abscessus N0010, clinical) is on record as 4; against Mycobacterium abscessus (M. abscessus N0016, clinical) it was 4; against Mycobacterium abscessus (M. abscessus N0017, clinical), 4; in the data set on Mycobacterium abscessus (M. abscessus N0018, clinical), 4; in the data set with Mycobacterium abscessus (M. abscessus N0019, clinical), 4; against Mycobacterium abscessus (M. abscessus N0020, clinical) it was 2. The compound also showed an MBC against Mycobacterium abscessus (M. abscessus N0046) of 4. For the same compound, the MIC in the data set with Mycobacterium abscessus (M. abscessus N0010, clinical) amounted to 1; in the data set with Mycobacterium abscessus (M. abscessus N0016, clinical) it was 2; in the data set on Mycobacterium abscessus (M. abscessus N0017, clinical), 2; with Mycobacterium abscessus (M. abscessus N0018, clinical), 1; with Mycobacterium abscessus (M. abscessus N0019, clinical), 2; in the data set on Mycobacterium abscessus (M. abscessus N0020, clinical) it was 1. Besides, the MIC against Mycobacterium abscessus (M. abscessus N0046) was determined as 2.
